Like-named read-outs stand apart in the source and are kept apart here.
Legend:
[1] = biological target: T1, 20S immunoproteasome (Bos taurus, UniProt Q3SZC2+Q3T0T1+Q3T112); assay: In vitro activity assays on isolated immunoproteasome (fluorogenic peptides); assay type: biochemical; conditions: isolated 20S from bovine thymus
T1 construct: isolated constitutive and immunoproteasomes purified from bovine brain and thymus, respectively; from tissue; host or cells: bovine thymus
Method: (§1) PVLs effects on the 20S constitutive and immunoproteasome peptidase activities were measured through in vitro assays performed with fluorogenic peptides as substrates. Isolation and purification of the 20S proteasome from bovine brain and thymus were performed as previously reported.^[ [23] ^] The incubation mixture contained the compound at concentrations ranging from 0.0 to 10 µM, 1 µg of the isolated 20S proteasome, the appropriate substrate (5 µM final concentration), and 50 mm Tris/HCl (pH 8.0), up to a final volume of 100 µL. Purified proteasomes were always preincubated with each compound at 37°C for 30 min before the fluorogenic peptide substrates were added to the reaction mixture. Final incubation was performed at 37°C, and after 60 min the fluorescence of the hydrolyzed 7‐amino‐4‐methyl‐coumarin (AMC) and 4‐aminobenzoic acid (pAB) was detected (AMC, λexc = 365 nm, λem = 449 nm; pAB, λexc = 304 nm, λem = 664 nm) on a SpectraMax Gemini XPS microplate reader.
(§2) PVLs were first tested on isolated constitutive and immunoproteasomes purified from bovine brain and thymus, respectively. The constitutive 20S proteasome is a barrel‐shaped complex of four stacked rings, made of seven α subunits in the two outer rings and seven β subunits in the two inner rings, the latter bearing the catalytically active sites in the β1, β2, and β5 subunits. Treatment with inflammatory cytokines induces the transcription of three additional active subunits, known as β1i, β2i, and β5i, that replace constitutive homologues during proteasome assembly.^[ [28] ^] Proteasome proteolytic activities depend on the hydroxyl group of the N‐terminal threonine (Thr‐1) residue, responsible for cleaving peptides through a nucleophilic attack.^[ [29] ^]

[2] = biological target: T2, Cathepsin B (Homo sapiens, UniProt P07858); assay: Cathepsin B activity in cell lysates (Z‐Arg‐Arg‐AMC); assay type: cell-based; conditions: APPmut cells, 6 h treatment
T2 construct: The mixture for cathepsin B, containing 1 µg of cell lysate; endogenous in cells; host or cells: SH-SY5Y (control, APPwt- and APPmut-transfected)
Method: (§3) Cell viability was evaluated with the 3‐(4,5‐dimethylthiazol‐2‐yl)‐2,5‐diphenyltetrazolium bromide assay (MTT).^[ [25] ^] Upon 6 h and 24 h treatment with increasing concentrations (0‐10 µM) of C1, C2, and C3 dissolved in DMSO, cells were washed in PBS, pH 7.5, and then MTT (final concentration 0.5 mg mL^−1) was added to the culture medium without FBS and incubated for 2 h at 37 °C. The medium was then removed and replaced with 100 µL of DMSO. The optical density was measured at 550 nm in a microtiter plate reader. At least six cultures were utilized for each time point. Neuroblastoma cells, control and transfected cells, were then treated with C1, C2, and C3 for 6 and 24 h at the concentrations 0–1–5 µM. Compounds were dissolved in DMSO and then added to cell culture media. Control cells were included in each time point. After removing the medium and washing with cold phosphate buffered saline (PBS), cells were harvested in 4 mL of PBS and centrifuged at 1600 × g for 5 min. The pellet was resuspended in lysis buffer (20 mM Tris, pH 7.4, 250 mM sucrose, 1 mM EDTA, and 5 mM β‐mercaptoethanol) and passed through a 29‐gauge needle at least ten times. Lysates were centrifuged at 12 000×g for 15 min and the supernatants were stored at ‐80°C until use. Protein concentration was determined by the method of Bradford using bovine serum albumin (BSA) as standard.^[ [26] ^]
Cathepsin B proteolytic activity was measured using the fluorogenic peptide Z‐Arg‐Arg‐AMC at a final concentration of 50 µM, as previously described.^[ [24] ^] The mixture for cathepsin B, containing 1 µg of cell lysate, was pre‐incubated in 100 mM phosphate buffer pH 6.0, 1 mM EDTA, and 2 mM dithiothreitol for 5 min at 30°C. Upon the addition of the substrate, the mixture was incubated for 15 min at 30°C. The fluorescent signal released by the hydrolyzed 7‐amino‐4‐methyl‐coumarin (AMC, λexc = 365 nm, λem = 449 nm) was detected on a SpectraMax Gemini XPS microplate reader.

[3] = test system: LC3II and p62; assay: Western blot of autophagy markers (LC3II, p62); assay type: cell-based, human
Method: as §3
Proteins were resolved on SDS–PAGE and electroblotted onto PVDF membranes. Membranes with transferred proteins were incubated with the primary monoclonal antibody and successively with the specific peroxidase conjugated secondary antibody. Monoclonal antibodies against Ub and p27 were obtained from Santa Cruz Biotechnology, Inc. (Heidelberg, Germany). SQSTM1/p62 (sequestosome 1, herein p62) mouse monoclonal antibody was from Sigma‐Aldrich S.r.L. (Milano, Italy) and the anti‐LC3B antibody was purchased from Cell Signaling Technology, Inc. The immunoblot detection was performed with ECL Western blotting detection reagents using a ChemiDoc MP system. […] Immunoblot images were quantified using ImageJ 1.52p software (NIH, USA).

[4] = test system: Aβ(1‐42); assay: Quantification of Aβ(1‐42) by ELISA in medium and cellular extracts; assay type: cell-based, human; conditions: 24 h, 5 µM
Method: Levels of Aβ(1‐42) secreted into the medium and present in cellular extracts were determined after PVLs treatment using the Human Aβ42 solid‐phase sandwich ELISA Kit from Invitrogen, following the manufacturer's instructions. For Aβ quantification in cell medium, culture medium was collected after neuronal cells treatment, centrifuged at 300 × g for 10 min to remove non adherent cells and debris and then treated with protease inhibitors.

[5] = biological target: T3, 26S proteasome (Homo sapiens, UniProt P28074); assay: 26S proteasome ChT‐L activity in cell lysates (fluorimetric); assay type: cell-based; conditions: cellular lysates, 24‐h exposure; versus untreated cells
T3 construct: ChT‐L activity of the 26S proteasome measured in control and transfected SH‐SY5Y cells; endogenous in cells; host or cells: SH-SY5Y (control, APPwt- and APPmut-transfected)
T3 sequence (P28074 60-263): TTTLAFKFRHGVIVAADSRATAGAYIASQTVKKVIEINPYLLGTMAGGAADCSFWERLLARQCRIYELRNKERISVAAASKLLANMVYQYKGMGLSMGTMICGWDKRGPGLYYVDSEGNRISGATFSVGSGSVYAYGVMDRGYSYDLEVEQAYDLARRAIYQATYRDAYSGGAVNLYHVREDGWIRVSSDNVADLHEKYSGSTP
Method: Cell viability was evaluated with the 3‐(4,5‐dimethylthiazol‐2‐yl)‐2,5‐diphenyltetrazolium bromide assay (MTT).^[ [25] ^] Upon 6 h and 24 h treatment with increasing concentrations (0‐10 µM) of C1, C2, and C3 dissolved in DMSO, cells were washed in PBS, pH 7.5, and then MTT (final concentration 0.5 mg mL^−1) was added to the culture medium without FBS and incubated for 2 h at 37 °C. The medium was then removed and replaced with 100 µL of DMSO. The optical density was measured at 550 nm in a microtiter plate reader. At least six cultures were utilized for each time point. […] Protein concentration was determined by the method of Bradford using bovine serum albumin (BSA) as standard.^[ [26] ^]
The effects on the proteasome system were evaluated through fluorimetric assays, as previously reported,^[ [27] ^] using the following synthetic substrates: Leu‐Leu‐Val‐Tyr‐AMC for ChT‐L, Leu‐Ser‐Thr‐Arg‐AMC for T‐L, Leu‐Leu‐Glu‐AMC for PGPH, and Gly‐Pro‐Ala‐Leu‐Ala‐AMC for BrAAP, whose test is performed with the addition of the aminopeptidase‐N (AP‐N). […] Incubation was performed at 37 °C, and after 60 min, the fluorescence of the hydrolyzed 7‐amino‐4‐methyl‐coumarin (AMC) was recorded (AMC, λexc = 365 nm, λem = 449 nm) on a SpectraMax Gemini XPS microplate reader. […] The fluorescence values of lysates were subtracted of the values of control assays in the presence of the two inhibitors.

[6] = test system: ubiquitin‐protein conjugates and p27; assay: Western blot of proteasome substrates (ubiquitin‐protein conjugates, p27); assay type: cell-based, human
Method: as §3
Proteins were resolved on SDS–PAGE and electroblotted onto PVDF membranes. Membranes with transferred proteins were incubated with the primary monoclonal antibody and successively with the specific peroxidase conjugated secondary antibody. Monoclonal antibodies against Ub and p27 were obtained from Santa Cruz Biotechnology, Inc. (Heidelberg, Germany). SQSTM1/p62 (sequestosome 1, herein p62) mouse monoclonal antibody was from Sigma‐Aldrich S.r.L. (Milano, Italy) and the anti‐LC3B antibody was purchased from Cell Signaling Technology, Inc. The immunoblot detection was performed with ECL Western blotting detection reagents using a ChemiDoc MP system. Each gel was loaded with molecular weight markers in the range of 12 to 225 kDa (GE Healthcare). Glyceraldehyde‐3‐phosphate dehydrogenase (GAPDH) was utilized as a control for equal protein loading: membranes were stripped and re‐probed with anti‐GAPDH monoclonal antibody (Santa Cruz Biotechnology, Heidelberg, Germany). Stripping buffer contained 200 mM glycine, 0.1% SDS, and 1% Tween 20. Immunoblot images were quantified using ImageJ 1.52p software (NIH, USA).

[7] = biological target: T4, constitutive 20S proteasome (Bos taurus, UniProt Q2TBP0+Q32KL2+Q3MHN0); assay: In vitro activity assays on isolated constitutive 20S proteasome (fluorogenic peptides); assay type: biochemical; conditions: isolated 20S from bovine brain
T4 construct: isolated constitutive and immunoproteasomes purified from bovine brain and thymus, respectively; from tissue; host or cells: bovine brain
Method: as §1, §2

[8] = test system: brown adipocytes; parameters: method as in PMID 28276197; conditions: cited from earlier work
[9] = 30 min preincubation, 37°C, read-out: IC50 ChT‐L Immunoproteasome
[10] = read-out: IC50 BrAAP Immunoproteasome
[11] = read-out: IC50 PGPH Immunoproteasome
[12] = read-out: IC50 T‐L Immunoproteasome
[13] = 6 h exposure, control and transfected SH‐SY5Y cells
[14] = 24 h treatment, mainly in APPmut cells exposed to C1
[15] = 30 min preincubation, 37°C, read-out: IC50 ChT‐L Constitutive proteasome
[16] = read-out: IC50 BrAAP Constitutive proteasome
[17] = read-out: IC50 PGPH Constitutive proteasome
[18] = read-out: IC50 T‐L Constitutive proteasome

SMILES	IC50 [1, 9]	IC50 [1, 10]	IC50 [1, 11]	IC50 [1, 12]	inhibition at 5 µM [2]	p62 degradation ([3]; APPwt cells, long‐term (24 h) exposure)	reduction of Aβ(1‐42) in cell extracts ([4]; APPmut cells)	reduction of Aβ(1‐42) in cell medium ([4]; APPmut cells)	ChT‐L residual activity, 26S proteasome [5]	levels of Ub‐conjugates and p27 [6, 13]	levels of Ub‐conjugates and p27 [6, 14]	IC50 [7, 15]	IC50 [7, 16]	IC50 [7, 17]	IC50 [7, 18]	levels of LC3II ([3]; APPmut cells, 6 h)	Aβ(1‐42) levels ([4]; APPwt cells)	protection from increased production of reactive oxygen species [8]
O=C1CCC(Cc2ccc(OS(=O)(=O)O)c(O)c2)O1 (stereo not drawn) [Compound C3, 5‐(3ʹ‐hydroxyphenyl)‐γ‐valerolactone‐4ʹ‐sulfate]	1450 ± 153 nM	88.4 ± 7 nM	72.7 ± 5.7 nM	588 ± 47.6 nM	30%	favored p62 degradation	35%	35%	60%	no particular effect	evident increase	109 ± 11 nM	302 ± 27.8 nM	104 ± 11 nM	56.8 ± 2.3 nM			
O=C1CCC(Cc2ccc(O)cc2)O1 (stereo not drawn) [Compound C1, 5‐(4ʹ‐hydroxyphenyl)‐γ‐valerolactone]	126 ± 11.3 nM	218 ± 19.6 nM	41.8 ± 3.8 nM	227 ± 13.2 nM	20%				30%	no particular effect	evident increase	120 ± 12.1 nM	243 ± 20.1 nM	62.8 ± 58.7 nM	13 ± 2.1 nM	increased	significantly reduced	
O=C1CC[C@H](Cc2ccc(O)c(O)c2)O1 [(R)‐5‐(3ʹ,4ʹ‐dihydroxyphenyl)‐γ‐valerolactone]																		protect brown adipocytes

From PMC9285603, “Flavan‐3‐ol Microbial Metabolites Modulate Proteolysis in Neuronal Cells Reducing Amyloid‐beta (1‐42) Levels” (Molecular Nutrition & Food Research, 2021)
